Biological target: T1, OCT1 (SLC22A1) (Homo sapiens, UniProt O15245)
T1 sequence (O15245 whole entry): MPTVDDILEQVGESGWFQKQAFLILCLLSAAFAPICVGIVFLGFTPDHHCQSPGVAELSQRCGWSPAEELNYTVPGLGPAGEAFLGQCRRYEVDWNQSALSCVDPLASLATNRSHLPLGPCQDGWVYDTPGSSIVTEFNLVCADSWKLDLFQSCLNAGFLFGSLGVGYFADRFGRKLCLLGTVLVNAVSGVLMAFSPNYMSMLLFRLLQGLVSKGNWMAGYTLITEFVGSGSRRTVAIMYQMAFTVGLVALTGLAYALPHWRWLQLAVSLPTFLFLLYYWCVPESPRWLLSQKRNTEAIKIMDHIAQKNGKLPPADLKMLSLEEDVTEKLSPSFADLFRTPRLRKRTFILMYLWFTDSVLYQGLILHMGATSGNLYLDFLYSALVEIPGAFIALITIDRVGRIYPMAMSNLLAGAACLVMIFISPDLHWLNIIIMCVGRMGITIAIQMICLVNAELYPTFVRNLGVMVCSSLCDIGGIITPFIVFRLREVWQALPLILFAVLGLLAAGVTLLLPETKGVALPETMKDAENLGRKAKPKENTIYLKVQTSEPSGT
Assay: in vitro

[1] = HEK293 cells that express human OCT1, probe 4-(4-(dimethylamino)styryl)-N-methylpyridinium

Compound | inhibition at 100 µM [1] | inhibition at 100 µM (hek293)
Nc1nc2ncc(CNc3ccc(C(=O)N[C@@H](CCC(=O)O)C(=O)O)cc3)nc2c(=O)[nH]1 [FOLIC ACID] | 33% | 
NS(=O)(=O)c1cc(C(=O)O)c(NCc2ccco2)cc1Cl [FUROSEMIDE] | 11.7% | 
NCC1(CC(=O)O)CCCCC1 [GABAPENTIN] | 15.1% | 
Nc1nc(O)c2ncn(COC(CO)CO)c2n1 [GANCICLOVIR] | 10.5% | 
Cc1cnc(C(=O)NCCc2ccc(S(=O)(=O)NC(=O)NC3CCCCC3)cc2)cn1 [GLIPIZIDE] | -12.7% | 
N[C@H]1C(O)O[C@H](CO)[C@@H](O)[C@@H]1O (stereo partly specified) [GLUCOSAMINE] | 13.9% | 
COc1ccc(Cl)cc1C(=O)NCCc1ccc(S(=O)(=O)NC(=O)NC2CCCCC2)cc1 [GLYBURIDE] | 0.3% | 
NCCc1c[nH]cn1 [HISTAMINE] |  | 4.1%
NNc1nncc2ccccc12 [HYDRALAZINE] |  | 6.5%
NS(=O)(=O)c1cc2c(cc1Cl)NCNS2(=O)=O [HYDROCHLOROTHIAZIDE] | -9.8% | 
CC(C)Cc1ccc(C(C)C(=O)O)cc1 (stereo unspecified) [IBUPROFEN] | 6.3% | 
CC(=O)N1CCN(c2ccc(OCC3COC(Cn4ccnc4)(c4ccc(Cl)cc4Cl)O3)cc2)CC1 (stereo unspecified) [KETOCONAZOLE] | 82.3% | 
CC(C(=O)O)c1cccc(C(=O)c2ccccc2)c1 (stereo unspecified) [KETOPROFEN] | -9.4% | 
N[C@@H](Cc1ccc(O)c(O)c1)C(=O)O [LEVODOPA] | 21.7% | 
N[C@@H](Cc1cc(I)c(Oc2cc(I)c(O)c(I)c2)c(I)c1)C(=O)O [LEVOTHYROXINE] | 12.7% | 
CCN(CC)CC(=O)Nc1c(C)cccc1C [LIDOCAINE] | -2.3% | 
CCOC(=O)N1CCC(=C2c3ccc(Cl)cc3CCc3cccnc32)CC1 [LORATADINE] | 51.8% | 
OC[C@@H](O)[C@@H](O)[C@H](O)[C@H](O)CO [MANNITOL] | -1.4% | 
Cc1cccc(CN2CCN(C(c3ccccc3)c3ccc(Cl)cc3)CC2)c1 (stereo unspecified) [MECLIZINE] | 16.4% | 
CC(C)NCC(O)c1cc(O)cc(O)c1 (stereo unspecified) [METAPROTERENOL] | 12.6% | 
Cn1cc[nH]c1=S [METHIMAZOLE] | 11.6% | 
CN(Cc1cnc2nc(N)nc(N)c2n1)c1ccc(C(=O)N[C@@H](CCC(=O)O)C(=O)O)cc1 [METHOTREXATE] | 26.3% | 

Compound | inhibition at 100 µM [1] | inhibition at 100 µM (hek293)
C[C@](N)(Cc1ccc(O)c(O)c1)C(=O)O [METHYLDOPA] | -7.2% | 
COCCc1ccc(OCC(O)CNC(C)C)cc1 (stereo unspecified) [METOPROLOL] | 32.4% | 
CN1CCN2c3ccccc3Cc3ccccc3C2C1 (stereo unspecified) [MIANSERIN] | 48.4% | 
O=C1CC[C@@]2(O)[C@H]3Cc4ccc(O)c5c4[C@@]2(CCN3CC2CC2)[C@H]1O5 [NALTREXONE] | 40.3% | 
CN(C)C(=O)Oc1cccc([N+](C)(C)C)c1 [NEOSTIGMINE BROMIDE] | 19.4% | 
CN1CCC[C@H]1c1cccnc1 [NICOTINE] |  | -3.7%
CC1COc2c(N3CCN(C)CC3)c(F)cc3c(=O)c(C(=O)O)cn1c23 (stereo unspecified) [OFLOXACIN] | 21.1% | 
Cc1ccccc1C(OCCN(C)C)c1ccccc1 (stereo unspecified) [ORPHENADRINE] | 77.6% | 
CCN(CC)CC#CCOC(=O)C(O)(c1ccccc1)C1CCCCC1 (stereo unspecified) [OXYBUTYNIN] | 75.7% | 
CC(=O)O[C@H]1C(=O)[C@@]2(C)[C@H]([C@H](OC(=O)c3ccccc3)[C@]3(O)C[C@H](OC(=O)[C@H](O)[C@@H](NC(=O)c4ccccc4)c4ccccc4)C(C)=C1C3(C)C)[C@]1(OC(C)=O)CO[C@@H]1C[C@@H]2O [PACLITAXEL] | 7.1% | 
CC(=O)O[C@H]1C[C@@H]2CC[C@@H]3[C@H](CC[C@@]4(C)[C@H]3C[C@H]([N+]3(C)CCCCC3)[C@@H]4OC(C)=O)[C@@]2(C)C[C@@H]1[N+]1(C)CCCCC1 [PANCURONIUM] | -10.3% | 
COc1ccc(Cc2nccc3cc(OC)c(OC)cc23)cc1OC [PAPAVERINE] | 66.3% | 
CCC1(c2ccccc2)C(=O)NC(=O)NC1=O [PHENOBARBITAL] | -6% | 
O=C1NC(=O)C(c2ccccc2)(c2ccccc2)N1 [PHENYTOIN] | -2% | 
CC[C@@H]1C(=O)OC[C@@H]1Cc1cncn1C [PILOCARPINE] | 17% | 
CC[C@H](C)C(=O)O[C@H]1C[C@H](O)C=C2C=C[C@H](C)[C@H](CC[C@@H](O)C[C@@H](O)CC(=O)O)[C@H]21 [PRAVASTATIN] | 5% | 
C[C@]12C=CC(=O)C=C1CC[C@@H]1[C@@H]2C(=O)C[C@@]2(C)[C@H]1CC[C@]2(O)C(=O)CO [PREDNISONE] | 23.3% | 
CCCN(CCC)S(=O)(=O)c1ccc(C(=O)O)cc1 [PROBENECID] | -8.9% | 
CCN(CC)CCNC(=O)c1ccc(N)cc1 [PROCAINAMIDE] | 26.5% | 
CC(=O)[C@H]1CC[C@H]2[C@@H]3CCC4=CC(=O)CC[C@]4(C)[C@H]3CC[C@]12C [PROGESTERONE] |  | 55.7%
CC(C)c1cccc(C(C)C)c1O [PROPOFOL] |  | -17.9%
C=C[C@H]1C[N@@]2CC[C@H]1C[C@@H]2[C@@H](O)c1ccnc2ccc(OC)cc12 [QUINIDINE] | 62.9% | 

Compound | inhibition at 100 µM [1] | inhibition at 100 µM (hek293)
C=C[C@H]1C[N@@]2CC[C@H]1C[C@H]2[C@H](O)c1ccnc2ccc(OC)cc12 [QUININE] | 60.2% | 
CNC(=C[N+](=O)[O-])NCCSCc1ccc(CN(C)C)o1 [RANITIDINE] | 28.8% | 
CO[C@H]1/C=C/O[C@@]2(C)Oc3c(C)c(O)c4c(O)c(c(/C=N/N5CCN(C)CC5)c(O)c4c3C2=O)NC(=O)/C(C)=C\C=C\[C@H](C)[C@H](O)[C@@H](C)[C@@H](O)[C@@H](C)[C@H](OC(C)=O)[C@@H]1C [RIFAMPIN] | 26.2% | 
Cc1nc2n(c(=O)c1CCN1CCC(c3noc4cc(F)ccc34)CC1)CCCC2 [RISPERIDONE] | 39.3% | 
CN1[C@@H]2C[C@@H](OC(=O)[C@H](CO)c3ccccc3)C[C@H]1[C@@H]1O[C@@H]12 [SCOPOLAMINE] | 43.9% | 
CCC(C)(C)C(=O)O[C@H]1C[C@@H](C)C=C2C=C[C@H](C)[C@H](CC[C@@H]3C[C@@H](O)CC(=O)O3)[C@H]21 [SIMVASTATIN] | 22.6% | 
CC(C)NCC(O)c1ccc(NS(C)(=O)=O)cc1 (stereo unspecified) [SOTALOL] | 31.8% | 
CC(=O)S[C@@H]1CC2=CC(=O)CC[C@]2(C)[C@H]2CC[C@@]3(C)[C@@H](CC[C@@]34CCC(=O)O4)[C@H]12 [SPIRONOLACTONE] | 87.9% | 
O=C(O)c1cc(/N=N/c2ccc(S(=O)(=O)Nc3ccccn3)cc2)ccc1O [SULFASALAZINE] | -3.7% | 
CC/C(=C(\c1ccccc1)c1ccc(OCCN(C)C)cc1)c1ccccc1 [TAMOXIFEN] | 72.1% | 
CC(C)(C)NCC(O)c1cc(O)cc(O)c1 (stereo unspecified) [TERBUTALINE] | 2.6% | 
CC(C)(C)c1ccc(C(O)CCCN2CCC(C(O)(c3ccccc3)c3ccccc3)CC2)cc1 (stereo unspecified) [TERFENADINE] | 65.4% | 
CN(C)[C@@H]1C(O)=C(C(N)=O)C(=O)[C@@]2(O)C(O)=C3C(=O)c4c(O)cccc4[C@@](C)(O)[C@H]3C[C@@H]12 [TETRACYCLINE] | 10.4% | 
Cn1c(=O)c2[nH]cnc2n(C)c1=O [THEOPHYLLINE] | -4.4% | 
CC(C)(C)NC[C@H](O)COc1nsnc1N1CCOCC1 [TIMOLOL] | 39% | 
CCS(=O)(=O)CCn1c([N+](=O)[O-])cnc1C [TINIDAZOLE] | 14.2% | 
OC(CCN1CCCCC1)(c1ccccc1)C1CCCCC1 (stereo unspecified) [TRIHEXYPHENIDYL] |  | 79.4%
COc1cc(Cc2cnc(N)nc2N)cc(OC)c1OC [TRIMETHOPRIM] |  | 58.1%
Cc1c(C)c2c(c(C)c1O)CCC(C)(COc1ccc(CC3SC(=O)NC3=O)cc1)O2 (stereo unspecified) [TROGLITAZONE] | 48.2% | 
CCCC(CCC)C(=O)O [VALPROIC ACID] | 19.6% | 
CN[C@H](CC(C)C)C(=O)N[C@H]1C(=O)N[C@@H](CC(N)=O)C(=O)N[C@H]2C(=O)N[C@H]3C(=O)N[C@H](C(=O)N[C@H](C(=O)O)c4cc(O)cc(O)c4-c4cc3ccc4O)[C@H](O)c3ccc(c(Cl)c3)Oc3cc2cc(c3O[C@@H]2O[C@H](CO)[C@@H](O)[C@H](O)[C@H]2O[C@H]2C[C@](C)(N)[C@H](O)[C@H](C)O2)Oc2ccc(cc2Cl)[C@H]1O [VANCOMYCIN] | 7.1% | 
CC[C@]1(O)C[C@@H]2CN(CCc3c([nH]c4ccccc34)[C@@](C(=O)OC)(c3cc4c(cc3OC)N(C)[C@H]3[C@@](O)(C(=O)OC)[C@H](OC(C)=O)[C@]5(CC)C=CCN6CC[C@]43[C@@H]65)C2)C1 [VINBLASTINE] | 1.9% | 

— ChEMBL document CHEMBL1140113, “Structural requirements for drug inhibition of the liver specific human organic cation transport protein 1” (J Med Chem, 2008)
